Type in all cases: physicochemical
A short description of data set [1]: Kinetic solubility in FeSSIF, FaSSIF and pH 7.4 PBS (HPLC). The note with it: for solubility at 24 h / solubility at 48 h: thermodynamic from solid. On the procedure:
The method parameters of kinetic solubility test in the present disclosure are as follows:
Approximately 15-30 mg of Form CSVI in the present disclosure was suspended into 1.8 mL of FeSSIF, 1.8 mL of FaSSIF and 1.8 mL of pH=7.4 PBS. After equilibration for 24 hours and 48 hours, the concentration of upadacitinib in saturated solutions were tested by HPLC and the results are listed in Table 2.
Approximately 15-30 mg of Form CSVII in the present disclosure was suspended into 1.8 mL of FeSSIF, 1.8 mL of FaSSIF and 1.8 mL of pH=7.4 PBS. After equilibration for 24 hours and 48 hours, the concentration of upadacitinib in saturated solutions was tested by HPLC and the results are listed in Table 5.

Data set [2] is described as follows: DVS humidity cycle 0% RH-95% RH-0% RH, crystalline form by XRPD. As to conditions: XRPD before and after. Here is the method:
Dynamic Vapor Sorption (DVS) is measured via an SMS (Surface Measurement Systems Ltd.) intrinsic DVS instrument. Its control software is DVS-Intrinsic control software. Typical parameters for DVS test are as follows: • Temperature: 25° C. • Gas and flow rate: N2, 200 mL/min • RH range: 0% RH to 95% RH
It can be seen that Form CSVI has good stability under accelerated conditions. Form CSVI is stable for at least 1 month under 60° C./75% RH (sealed) condition. It can be seen that Form CSVI has good stability under more stressed condition as well. Approximately 10 mg of Form CSVI in the present disclosure underwent a humidity cycle of 0% RH-95% RH-0% RH with a dynamic vapor sorption (DVS) analyzer.
Approximately 10 mg of Form CSVII in the present disclosure underwent a humidity cycle of 0% RH-95% RH-0% RH with a dynamic vapor sorption (DVS) analyzer.

The nature of data set [3]: Stability of drug substance on storage (XRPD crystalline form, HPLC purity). The note with it: for Chemical purity during storage: storage conditions of the stability test. On the procedure:
The method parameters for related substances test in the present disclosure are as follows:
Approximately 5 mg of Form CSVI in the present disclosure was stored under 40° C./75% RH and 60° C./75% RH conditions. The purity and crystalline form were tested before and after storage by HPLC and XRPD. The results are listed in Table 3 and the XRPD overlay is substantially as depicted in FIG. 4.
Approximately 5 mg of Form CSVII in the present disclosure was stored under 25° C./60% RH, 40° C./75% RH and 60° C./75% RH conditions. The purity and crystalline form were tested before and after storage by HPLC and XRPD. The results are listed in Table 6 and the XRPD overlay is substantially as depicted in FIG. 10.

Data set [4] is described as follows: Crystalline form before and after formulation process (XRPD).
[5] abbreviates: 40° C./75% RH, Sealed, 6 months.
Setting [6] is: 25° C./60% RH, Sealed, 6 months.

The record followed here is US11572365B2, “Crystal form of upadacitinib, preparation method therefor, and use thereof” (CRYSTAL PHARMACEUTICAL (SUZHOU) CO., LTD., priority 2021, dated 2023).

Usually solubility stands for the dissolved amount per volume that the medium holds. A high value points to much dissolved substance. By Solubility is commonly meant how much of the substance goes into solution per volume. Read a high Solubility as a readily soluble substance.

In brackets after ≈: the same amount, converted by molar mass.

Take `CC[C@@H]1CN(C(=O)NCC(F)(F)F)C[C@@H]1c1cnc2cnc3[nH]ccc3n12` [Form CSVI, (3S,4R)-3-ethyl-4-(3H-imidazo[1,2-a]pyrrolo[2,3-e]pyrazin-8-yl)-N-(2,2,2-trifluoroethyl) pyrrolidine-1-carboxamide]: the solubility at 24 h in data set [1] (FaSSIF, 37 °C, pH 6.5, fassif, FaSSIF (pH 6.5, 37° C.), 24 hours) amounted to 1870 µg/mL (≈ 4.92 mM); in data set [1] (FeSSIF, 37 °C, pH 5, fessif, FeSSIF (pH 5.0, 37° C.), 24 hours) it was 2200 µg/mL (≈ 5.78 mM); in data set [1] (PBS, 25 °C, pH 7.4, aqueous buffer, pH 7.4, 25° C., 24 hours) it was 880 µg/mL (≈ 2.31 mM). The solubility at 48 h is 1710 µg/mL (≈ 4.5 mM) in data set [1] (FaSSIF, 37 °C, pH 6.5, fassif, FaSSIF (pH 6.5, 37° C.), 48 hours); 2220 µg/mL (≈ 5.84 mM) in data set [1] (FeSSIF, 37 °C, pH 5, fessif, FeSSIF (pH 5.0, 37° C.), 48 hours); 850 µg/mL (≈ 2.23 mM) in data set [1] (PBS, 25 °C, pH 7.4, aqueous buffer, pH 7.4, 25° C., 48 hours). Further, the “Form change after DVS test” value in data set [2] is recorded as “no form change is observed”. Further, the “Time for which the form is stable (crystalline state unchanged)” value is “at least 6 months” in data set [3] (40° C./75% RH (open)), “at least 6 months” in data set [3] (40° C./75% RH (sealed)) and “at least 1 month” in data set [3] (60° C./75% RH (sealed)). In addition, the Purity in data set [3] (40° C./75% RH, Open, 6 months) stood at 99.89%; in data set [3] (setting [5]), 99.92%; in data set [3] (60° C./75% RH, Sealed, 1 month), 99.91%; in data set [3] (Initial), 99.89%. For the same compound, the Solid form result is recorded as “Form CSVI” in data set [3] (40° C./75% RH, Open, 6 months); “Form CSVI” in data set [3] (setting [5]); “Form CSVI” in data set [3] (60° C./75% RH, Sealed, 1 month); “Form CSVI” in data set [3] (Initial). For the same compound, the “Chemical purity during storage” value in data set [3] is listed as “above 99.8%”. Further, in data set [4], the “Physical stability after formulation procedure” value is recorded as “physically stable”.
For the compound `CC[C@@H]1CN(C(=O)NCC(F)(F)F)C[C@@H]1c1cnc2cnc3[nH]ccc3n12` [Form CSVII, (3S,4R)-3-ethyl-4-(3H-imidazo[1,2-a]pyrrolo[2,3-e]pyrazin-8-yl)-N-(2,2,2-trifluoroethyl) pyrrolidine-1-carboxamide], the Solubility in data set [1] (FaSSIF (pH 6.5, 37° C.), 24 hours) amounted to 2020 µg/mL (≈ 5.31 mM); in data set [1] (FaSSIF (pH 6.5, 37° C.), 48 hours) it was 2170 µg/mL (≈ 5.7 mM); in data set [1] (FeSSIF (pH 5.0, 37° C.), 24 hours) it was 2280 µg/mL (≈ 5.99 mM); in data set [1] (FeSSIF (pH 5.0, 37° C.), 48 hours), 2470 µg/mL (≈ 6.49 mM); in data set [1] (pH 7.4, 25° C., 24 hours), 920 µg/mL (≈ 2.42 mM); in data set [1] (pH 7.4, 25° C., 48 hours) it was 850 µg/mL (≈ 2.23 mM). In addition, the “Form change after DVS test” value in data set [2] is given as “no form change is observed”. For the same compound, the Purity in data set [3] (25° C./60% RH, Open, 6 months) was 99.91%; in data set [3] (setting [6]) it was 99.92%; in data set [3] (setting [5]), 99.92%; in data set [3] (60° C./75% RH, Sealed, 1 month), 99.92%; in data set [3] (Initial), 99.92%. For the same compound, the Solid form entry is given as “Form CSVII” in data set [3] (25° C./60% RH, Open, 6 months); “Form CSVII” in data set [3] (setting [6]); “Form CSVII” in data set [3] (setting [5]); “Form CSVII” in data set [3] (60° C./75% RH, Sealed, 1 month); “Form CSVII” in data set [3] (Initial). In addition, the “Chemical purity during storage” value in data set [3] is reported as “above 99.9%”. Moreover, the “Physical stability after formulation procedure” value in data set [4] is on record as “physically stable”.
